# Assays:
# primary dendritic cells = assay: Transfection of primary dendritic cells with lipoplexes (luciferase activity per protein content); type: cell-based, human
# Description: Cell culture: SV40 transformed African green monkey kidney cell line COS-7 (ATCC CRL-1651) was routinely passaged in DMEM (GIBCO BRL, Karlsruhe, Germany), respectively, supplemented with 1% L-glutamin solution (100x), 1% Penicillin/Streptomycin solution (100x) (GIBCO BRL, Karlsruhe, Germany), and 10% FCS (BioWhittaker, Verviers, Belgium) at 37°C with 5% CO2 in humidified atmosphere. For the screening cells were maintained in 96-well culture plates (Greiner, Frickenhausen, Germany) in 100 μl DMEM, 10 % FCS, 1 % Penicillin-streptomycin in a humidified atmosphere at 37 °C/5 % CO2. 24 h prior to transfection, the cells were seeded into the microtiter plate at 10,000 cells per well to reach a confluency of 50 % at the time of transfection. […] After 5-6 days non-adherent cells were collected and purity of DCs was determined by FACS analysis using a FACSort flow cytometer (Becton Dickinson, Mountain View, CA) and the CellQuest software for data processing as recently described (Jantscheff, P. et al., J. Immunol. Methods 163(1):91-7 (1993)). […] Binding specificity was determined using IgG1 (MOPC-21), IgG2a (UPC-10), or IgG2b (MOPC-141) isotype control mAbs (SIGMA-ALDRICH Chemie, Buchs, Switzerland). […]
# COS-7 cells = assay: Automated lipofection screening: GFP-luciferase reporter gene transfer (luciferase activity per protein content); type: cell-based, African green monkey; conditions: best lipid/DNA charge ratio of 2.5, determined in each run, point is thousands separator
# Description: Screening the combinatorial lipid library for lipofection properties: Goal of this first step was to compare transfection efficiency of these structurally related cationic lipids with systematically modified hydrocarbon chain compositions for the development of suitable lipofection reagents and protocols and to study the relationship between structure and transfection efficiency of this new class of cationic lipids for gene transfer. All lipids (MS-1 to MS-50, table 1) were tested using a standard protocol: From each lipid, twenty four different lipoplexes were formed containing either no helper lipid or the helper lipids DOPE and CHOL at molar amounts (1:0.5), respectively, using eight different lipid:DNA-charge ratios (LDR) from 1:1 - 15:1, resulting in a lipofection profile for each lipid. The COS-7 cell-line was used for this lipofection study since COS-7 is easy to transfect and differences between the lipids are easy to identify.
# Cell culture: SV40 transformed African green monkey kidney cell line COS-7 (ATCC CRL-1651) was routinely passaged in DMEM (GIBCO BRL, Karlsruhe, Germany), respectively, supplemented with 1% L-glutamin solution (100x), 1% Penicillin/Streptomycin solution (100x) (GIBCO BRL, Karlsruhe, Germany), and 10% FCS (BioWhittaker, Verviers, Belgium) at 37°C with 5% CO2 in humidified atmosphere. For the screening cells were maintained in 96-well culture plates (Greiner, Frickenhausen, Germany) in 100 µl DMEM, 10 % FCS, 1 % Penicillin-streptomycin in a humidified atmosphere at 37 °C/5 % CO2. 24 h prior to transfection, the cells were seeded into the microtiter plate at 10,000 cells per well to reach a confluency of 50 % at the time of transfection. Dendritic cells: Dendritic cells (DC) were derived from highly purified circulating CD14(+) monocytes: In a first step, peripheral blood mononuclear leukocytes (PBL) from healthy control persons were isolated by Ficoll-Paque (Pharmacia Biotech AB, Uppsala, Sweden) density centrifugation. The following immunomagnetic purification of the monocytes from PBL was performed using CD14 Microbeads and MiniMACS high gradient magnetic separation columns (Miltenyi Biotech, Bergisch Gladbach, Germany) according to manufacturer's instructions. Isolated monocytes (5 x 10^5/well) were cultured in RPMI supplemented with 10 % FCS, or serum-free Macrophage-SFM medium (GIBCO BRL, Karlsruhe, Germany) supplemented with human recombinant GM-CSF (0.05µg/ml) and IL-4 (0.025µg/ml) (PromoCell, Heidelberg, Germany) in 6-well plates. Aliquots of the cells were reanalyzed by FACS with anti-CD14 mAbs (Pharmingen, San Diego, CA). After 5-6 days non-adherent cells were collected and purity of DCs was determined by FACS analysis using a FACSort flow cytometer (Becton Dickinson, Mountain View, CA) and the CellQuest software for data processing as recently described (Jantscheff, P. et al., J. Immunol. Methods 163(1):91-7 (1993)).
compound,measurement,setting,value
"CCCCCCCC/C=C\CCCCCCCC(=O)OCC(C[N+](C)(C)C)OC(=O)CCCCCCC/C=C\CCCCCCCC (stereo not drawn) [DOTAP, N-[1-(2,3-dioleoyloxy)propyl]-N,N,N-trimethylammonium methylsulfate]","Transfection efficiencies, RLU","primary dendritic cells; helper lipid 1:0.5 at optimum lipid:DNA ratio, ± standard deviation (lu µg^-1 protein)",235 ± 119 RLU
same,% DOTAP,primary dendritic cells; standardized on lipofection efficiency of DOTAP-lipoplexes set to 100%,100%
same,transfection efficiency (DOTAP values),COS-7 cells,30.838 ± 6.363 RLU
